Experimental findings from patent US20230181536A1, “ANTICANCER COMBINATION THERAPY WITH N-(1-ACRYLOYL-AZETIDIN-3-YL)-2-((1H-INDAZOL-3-YL)AMINO)METHYL)-1H-IMIDAZOLE-5-CARBOXAMIDE INHIBITOR OF KRAS-G12C” (TAIHO PHARMACEUTICAL CO., LTD., priority 2020, published 2023) are described below.

Broadly, the IC50 is the concentration at which inhibition is half-maximal.

The structures appear in SMILES notation.

This assay deals with T1, KRAS G12C (Homo sapiens, UniProt P01116, G12C).
T1 construct: KRAS G12C (amino acid region: 1-169)
T1 sequence (P01116 1-169 isoform P01116-2 G12C): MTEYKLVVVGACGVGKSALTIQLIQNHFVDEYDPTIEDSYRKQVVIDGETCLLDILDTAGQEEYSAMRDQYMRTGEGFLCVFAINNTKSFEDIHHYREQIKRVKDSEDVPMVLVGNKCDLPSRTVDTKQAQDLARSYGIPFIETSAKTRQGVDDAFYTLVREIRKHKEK
As to the kind of experiment: Inhibitory activity on the KRAS G12C nucleotide (GDP-GTP) exchange reaction. It is filed as biochemical. Particulars: Bodipy FL GDP-bound KRAS G12C 25 nM; preincubation at 25° C. for 4 hours; SOS1 100 nM, GppNHp 1 μM, reaction for 30 minutes. The procedure:
Test Example 2: Evaluation of Inhibitory Activity of Compounds on the KRAS G12C Nucleotide (GDP-GTP) Exchange Reaction
The inhibitory activity of compounds on the exchange reaction of GDP into GppNHp in Bodipy (trademark) FL-bound KRAS G12C was examined by fluorescence measurement using human recombinant KRAS G12C and SOS1 proteins.
For the preparation of KRAS G12C to which Bodipy FL GDP was bound, first, 50 µM KRAS G12C (amino acid region: 1-169) and 1 mM Bodipy FL GDP (Invitrogen, G22360) were incubated for 1 hour in a buffer (20 mM Tris-HCl (pH 7.5), 50 mM NaCl, 1 mM DTT) in ice in the presence of 2.5 mM EDTA. Thereafter, MgCl2 with a final concentration of 10 mM was added, and the mixture was incubated at room temperature for 30 minutes. The protein was allowed to pass through a NAP-5 column to remove free nucleotides and was used for compound evaluation.
For the measurement of the inhibitory activity of compounds on nucleotide exchange reaction, first, the compound of the disclosure was diluted stepwise with dimethyl sulfoxide (DMSO). Subsequently, a solution of the gradually diluted compound of the disclosure in DMSO (the final concentration of DMSO: 5%) and KRAS G12C (25 nM) bound to Bodipy FL GDP were added to a reaction buffer (20 mM Tris-HCl (pH 7.5), 100 mM NaCl, 1 mM MgCl2, 2 mM DTT, 0.1% Tween20), followed by preincubation at 25° C. for 4 hours. Thereafter, Son of Sevenless Homolog 1 (SOS1, amino acid region: 564-1049) and GppNHp (GMPPNP, Jena Bioscience GmbH, NU-401-50) were added such that their final concentration was 100 nM and 1 μM respectively, followed by reaction for 30 minutes. The change in fluorescence intensity of Bodipy FL (excitation wavelength: 485 nm, fluorescence wavelength: 520 nm) immediately after the start of reaction and after 30 minutes from the start of reaction was standardized. The signal value for only DMSO was determined to be 0% inhibition, and the signal value for no addition of GppNHp was determined to be 100% inhibition. The compound concentration at which 50% inhibition is achieved was determined to be the IC50 (nM) and was calculated.
Compound `C=CC(=O)N1CC(NC(=O)c2c(C)nc(CNc3n[nH]c4cc(Cl)c(C(C)(C)C)cc34)n2CC(F)(F)F)C1` [Example 22, N-(1-acryloylazetidin-3-yl)-2-(((5-(tert-butyl)-6-chloro-1H-indazol-3-yl)amino)methyl)-4-methyl-1-(2,2,2-trifluoroethyl)-1H-imidazole-5-carboxamide] gave an IC50 of 55 nM.
`C=CC(=O)N1CC(NC(=O)c2cnc(CNc3n[nH]c4cc(Cl)c(C(C)(C)C)cc34)n2C)C1` [Example 1, N-(1-acryloylazetidin-3-yl)-2-(((5-(tert-butyl)-6-chloro-1H-indazol-3-yl)amino)methyl)-1-methyl-1H-imidazole-5-carboxamide]: the midpoint of inhibition, the IC50, lay at 16 nM.
The compound `C=CC(=O)N1C[C@H](NC(=O)c2c(Cl)nc(CNc3n[nH]c4cc(Cl)c(C(C)(C)C)cc34)n2C)[C@@H](F)C1` [Example 76, N-((3S,4S)-1-acryloyl-4-fluoropyrrolidin-3-yl)-2-(((5-(tert-butyl)-6-chloro-1H-indazol-3-yl)amino)methyl)-4-chloro-1-methyl-1H-imidazole-5-carboxamide] had an IC50 of 13 nM.
Regarding `C=CC(=O)N1CC(NC(=O)c2c(C)nc(CNc3n[nH]c4cc(Cl)c(C(C)(C)C)cc34)n2CCCC)C1` [Example 18, N-(1-acryloylazetidin-3-yl)-1-butyl 2-(((5-(tert-butyl)-6-chloro-JH-indazol-3-yl)amino)methyl)-4-methyl-JH-imidazole-5-carboxamide], the IC50 was determined as 12 nM.
The compound `C=CC(=O)N1CC(NC(=O)c2c(C(F)(F)F)nc(CNc3n[nH]c4cc(Cl)c(C(C)(C)C)cc34)n2C(C)C)C1` [Example 32, N-(1-acryloylazetidin-3-yl)-2-(((5-(tert-butyl)-6-chloro-1H-indazol-3-yl)amino)methyl)-1-isopropyl-4-(trifluoromethyl)-1H-imidazole-5-carboxamide] returned an IC50 of 50 nM.
Under `C=CC(=O)N1C[C@H](NC(=O)c2c(C)nc(CNc3n[nH]c4cc(Cl)c(C(C)(C)C)cc34)n2C)[C@@H](C)C1` [Example 60, N-((3R,4S)-1-acryloyl-4-methylpyrrolidin-3-yl)-2-(((5-(tert-butyl)-6-chloro-1H-indazol-3-yl)amino)methyl)-1,4-dimethyl-1H-imidazole-5-carboxamide] stands 1500 nM; under `C=CC(=O)N1CC(NC(=O)c2c(C(F)F)nc(CNc3n[nH]c4cc(Cl)c(C(C)(C)C)cc34)n2C(C)C)C1` [Example 33, N-(1-acryloylazetidin-3-yl)-2-(((5-(tert-butyl)-6-chloro-1H-indazol-3-yl)amino)methyl)-4-(difluoromethyl)-1-isopropyl-1H-imidazole-5-carboxamide], 13 nM.
The same measure for `C=CC(=O)N1CC(NC(=O)c2cnc(CNc3n[nH]c4cc(Cl)c(CC)cc34)n2C)C1` [Example 39, N-(1-acryloylazetidin-3-yl)-2-(((6-chloro-5-ethyl-1H-indazol-3-yl)amino)methyl)-1-methyl-1H-imidazole-5-carboxamide]: 870 nM; for `C=CC(=O)N1CCC(NC(=O)c2c(C)nc(CNc3n[nH]c4cc(Cl)c(C(C)(C)C)cc34)n2C)CC1` [Example 47, N-(1-acryloylpiperidin-4-yl)-2-(((5-(tert-butyl)-6-chloro-1H-indazol-3-yl)amino)methyl)-1,4-dimethyl-1H-imidazole-5-carboxamide]: 1730 nM; for `C=CC(=O)N1CC(NC(=O)c2cnc(C(C)Nc3n[nH]c4cc(Cl)c(C(C)(C)C)cc34)n2C)C1` (stereo not shown) [Example 4, N-(1-acryloylazetidin-3-yl)-2-(1-((5-(tert-butyl)-6-chloro-1H-indazol-3-yl)amino)ethyl)-1-methyl-1H-imidazole-5-carboxamide]: 1560 nM.
Turning to `C=CC(=O)N1CC(NC(=O)c2c(C)nc(CNc3n[nH]c4cc(Cl)c(C(C)(C)C)cc34)n2C(C)CC)C1` (stereo not shown) [Example 20, N-(1-acryloylazetidin-3-yl)-1-(sec-butyl)-2-(((5-(tert-butyl)-6-chloro-1H-indazol-3-yl)amino)methyl)-4-methyl-1H-imidazole-5-carboxamide], it took 31 nM to reach half-maximal inhibition (IC50).
Under `C=CC(=O)N1C[C@@H](C)[C@@H](NC(=O)c2c(Cl)nc(CNc3n[nH]c4cc(Cl)c(C(C)(C)C)cc34)n2C)C1` [Example 78, N-((3R,4R)-1-acryloyl-4-methylpyrrolidin-3-yl)-2-(((5-(tert-butyl)-6-chloro-1H-indazol-3-yl)amino)methyl)-4-chloro-1-methyl-1H-imidazole-5-carboxamide] stands 20 nM; under `C=CC(=O)N1CC(NC(=O)c2c(Cl)nc(CNc3n[nH]c4cc(Cl)c(C(C)(C)C)cc34)n2[C@@H]2CCOC2)C1` [Example 102, (R)-N-(1-acryloylazetidin-3-yl)-2-(((5-(tert-butyl)-6-chloro-1H-indazol-3-yl)amino)methyl)-4-chloro-1-(tetrahydrofuran-3-yl)-1H-imidazole-5-carboxamide], 5 nM.
Under `C=CC(=O)N1CC(NC(=O)c2c(C)nc(CNc3n[nH]c4cc(Cl)c(C(C)(C)C)cc34)n2C(C)C)C1` [Example 13, N-(1-acryloylazetidin-3-yl)-2-(((5-(tert-butyl)-6-chloro-1H-indazol-3-yl)amino)methyl)-1-isopropyl-4-methyl-1H-imidazole-5-carboxamide] stands 15 nM; under `C=CC(=O)N1CC(NC(=O)c2c(Cl)nc(CNc3n[nH]c4cc(Cl)c(C(C)(C)C)cc34)n2[C@@H]2CCN(c3ccccn3)C2)C1` [Example 124, (R)-N-(1-acryloylazetidin-3-yl)-2-(((5-(tert-butyl)-6-chloro-1H-indazol-3-yl)amino)methyl)-4-chloro-1-(1-(pyridin-2-yl)pyrrolidin-3-yl)-1H-imidazole-5-carboxamide], 6 nM.
The same measure for `C=CCN1CC[C@@H](n2c(CNc3n[nH]c4cc(Cl)c(C(C)(C)C)cc34)nc(Cl)c2C(=O)NC2CN(C(=O)C=C)C2)C1` [Example 123, (R)-N-(1-acryloylazetidin-3-yl)-1-(1-allylpyrrolidin-3-yl)-2-(((5-(tert-butyl)-6-chloro-1H-indazol-3-yl)amino)methyl)-4-chloro-1H-imidazole-5-carboxamide]: 9 nM.
For the compound `C=CC(=O)N1CC(NC(=O)c2cnc(CNc3n[nH]c4cc(Cl)c(C(C)(C)C)cc34)n2Cc2cc(OC)cc(OC)c2)C1` [Example 88, N-(1-acryloylazetidin-3-yl)-2-(((5-(tert-butyl)-6-chloro-1H-indazol-3-yl)amino)methyl)-1-(3,5-dimethoxybenzyl)-1H-imidazole-5-carboxamide], 158 nM corresponded to half-maximal inhibition (IC50).
The same measure for `C=CC(=O)N1CC(NC(=O)c2c(C)c(CNc3n[nH]c4cc(Cl)c(C(C)(C)C)cc34)nn2C)C1` [Example 10, N-(1-acryloylazetidin-3-yl)-3-(((5-(tert-butyl)-6-chloro-1H-indazol-3-yl)amino)methyl)-1,4-dimethyl-1H-pyrazole-5-carboxamide]: 129 nM; for `C=CC(=O)N1CC(NC(=O)c2c(Cl)nc(CNc3n[nH]c4cc(Cl)c(C(C)(C)C)cc34)n2C)C1` [Example 29, N-(1-acryloylazetidin-3-yl)-2-(((5-(tert-butyl)-6-chloro-1H-indazol-3-yl)amino)methyl)-4-chloro-1-methyl-1H-imidazole-5-carboxamide]: 6 nM.
Under `C=CC(=O)N1C[C@@H](CF)[C@@H](NC(=O)c2c(C)nc(CNc3n[nH]c4cc(Cl)c(C(C)(C)C)cc34)n2C)C1` [Example 66, N-((3R,4R)-1-acryloyl-4-(fluoromethyl)pyrrolidin-3-yl)-2-(((5-(tert-butyl)-6-chloro-1H-indazol-3-yl)amino)methyl)-1,4-dimethyl-1H-imidazole-5-carboxamide] stands 20 nM; under `C=CC(=O)N1CC(NC(=O)c2c(Cl)nc(CNc3n[nH]c4cc(Cl)c(C(C)(C)C)cc34)n2CC2CCCC2)C1` [Example 110, N-(1-acryloylazetidin-3-yl)-2-(((5-(tert-butyl)-6-chloro-1H-indazol-3-yl)amino)methyl)-4-chloro-1-(cyclopentylmethyl)-1H-imidazole-5-carboxamide], 9 nM.
Under `C=CC(=O)N1C[C@@H](CC)[C@@H](NC(=O)c2c(C)nc(CNc3n[nH]c4cc(Cl)c(C(C)(C)C)cc34)n2C)C1` [Example 69, N-((3R,4R)-1-acryloyl-4-ethylpyrrolidin-3-yl)-2-(((5-(tert-butyl)-6-chloro-1H-indazol-3-yl)amino)methyl)-1,4-dimethyl-1H-imidazole-5-carboxamide] stands 6650 nM.
